Measurements reported in the NIST ThermoML archive (doi:10.1016/j.fluid.2014.09.014).

Legend:
[1] = 298.15 K; 101.33 kPa; Liquid; mechanical oscillator
[2] = refractive index (Na D-line) (dimensionless); settings: 298.15 K; 101.33 kPa; Liquid; Standard Abbe refractometry
[3] = Boiling temperature at pressure P; settings: Liquid, Ebulliometric method (Recirculating still)
[4] = xn = mol fraction of the nth substance listed; settings: 101 kPa, Liquid, mechanical oscillator
[5] = refractive index (other wavelength) (dimensionless); xn = mol fraction of the nth substance listed; settings: 101 kPa, Liquid, Standard Abbe refractometry

CC(C)OC(C)C [diisopropyl ether]
Settings | mass density [kg/m3] | refractive index
[1] | 718.3 | –
[2] | – | 1.3653

CC(C)O [propan-2-ol]
Settings | mass density [kg/m3] | refractive index
[1] | 782.45 | –
[2] | – | 1.37522

[3]
Settings | Boiling temperature at pressure P [°C]
14.02 kPa | 39.48
16.09 kPa | 42.07
18.94 kPa | 45.20
21.65 kPa | 47.82
24.56 kPa | 50.31
26.99 kPa | 52.21
29.69 kPa | 54.2
32.53 kPa | 56.04
36.08 kPa | 58.20
38.28 kPa | 59.5
40.49 kPa | 60.7
43.63 kPa | 62.27
45.88 kPa | 63.37
48.77 kPa | 64.71
51.47 kPa | 65.91
54.24 kPa | 67.08
56.82 kPa | 68.12
59.59 kPa | 69.20
62.14 kPa | 70.2
65.69 kPa | 71.43
67.6 kPa | 72.09
70.27 kPa | 72.98
73.16 kPa | 73.93
75.65 kPa | 74.72
78.35 kPa | 75.6
81.05 kPa | 76.36
83.8 kPa | 77.16
86.4 kPa | 77.90
96.28 kPa | 80.54

CC(C)O [propan-2-ol] + CC(C)OC(C)C
[4], x2 = 0
Settings | mass density [kg/m3]
293.15 K | 786.91
298.15 K | 782.45
303.15 K | 777.84
308.15 K | 773.13
313.15 K | 768.47
318.15 K | 763.79

refractive index, [5], x2 = 0
Settings | Wavelength=404.7 nm | Wavelength=435.8 nm | Wavelength=486.1 nm | Wavelength=546.1 nm | Wavelength=587.6 nm | Wavelength=589.3 nm | Wavelength=632.8 nm | Wavelength=644 nm | Wavelength=706.5 nm
293.5 K | 1.3883 | 1.38525 | 1.38179 | 1.37892 | 1.37742 | 1.37736 | 1.37605 | 1.37574 | 1.37424
298.15 K | 1.3861 | 1.38307 | 1.37963 | 1.37678 | 1.37527 | 1.37522 | 1.37392 | 1.37361 | 1.37214
303.15 K | 1.38379 | 1.38078 | 1.37738 | 1.37453 | 1.37304 | 1.37299 | 1.3717 | 1.3714 | 1.36993
308.15 K | 1.38152 | 1.37851 | 1.37512 | 1.3723 | 1.3708 | 1.37075 | 1.36946 | 1.36917 | 1.36772
313.15 K | 1.37921 | 1.37624 | 1.37288 | 1.37005 | 1.36857 | 1.36852 | 1.36726 | 1.36696 | 1.36551
318.15 K | 1.37691 | 1.37397 | 1.37061 | 1.36782 | 1.36635 | 1.36629 | 1.36502 | 1.36473 | 1.36329

CO [methanol] + CC(C)OC(C)C
[4], x1 = 1
Settings | mass density [kg/m3]
293.15 K | 791.62
298.15 K | 786.62
303.15 K | 781.54
308.15 K | 776.5
313.15 K | 771.53
318.15 K | 766.6

refractive index, [5], x1 = 1
Settings | Wavelength=40.47 nm | Wavelength=435.8 nm | Wavelength=486.1 nm | Wavelength=546.1 nm | Wavelength=587.6 nm | Wavelength=589.3 nm | Wavelength=632.8 nm | Wavelength=644 nm | Wavelength=706.5 nm
293.15 K | 1.33767 | 1.3353 | 1.3324 | 1.32991 | 1.32869 | 1.32864 | 1.32754 | 1.3273 | 1.3261
298.15 K | 1.33564 | 1.3333 | 1.3304 | 1.328 | 1.32671 | 1.32666 | 1.32558 | 1.32535 | 1.32415
303.15 K | 1.33357 | 1.33126 | 1.32839 | 1.32597 | 1.32471 | 1.32467 | 1.3236 | 1.32336 | 1.32219
308.15 K | 1.33153 | 1.32926 | 1.32637 | 1.32397 | 1.32274 | 1.32269 | 1.32163 | 1.32138 | 1.32021
313.15 K | 1.32947 | 1.32722 | 1.32434 | 1.32196 | 1.32073 | 1.32068 | 1.31965 | 1.31942 | 1.31825
318.15 K | 1.32742 | 1.32518 | 1.32234 | 1.31993 | 1.31874 | 1.3187 | 1.31768 | 1.31744 | 1.31631

CO [methanol]
Settings | mass density [kg/m3] | refractive index
[1] | 786.62 | –
[2] | – | 1.32666

[3]
Settings | Boiling temperature at pressure P [°C]
26.55 kPa | 33.76
29.52 kPa | 36.0
32.46 kPa | 37.94
35.65 kPa | 39.93
37.8 kPa | 41.19
40.63 kPa | 42.76
43.23 kPa | 44.12
44.63 kPa | 44.83
48.35 kPa | 46.62
51.4 kPa | 48.00
53.97 kPa | 49.11
56.89 kPa | 50.32
59.55 kPa | 51.38
62.25 kPa | 52.41
64.9 kPa | 53.39
67.5 kPa | 54.32
70.07 kPa | 55.21
72.95 kPa | 56.17
75.66 kPa | 57.1
78.35 kPa | 57.90
81.05 kPa | 58.72
83.76 kPa | 59.52
86.46 kPa | 60.30
96.35 kPa | 63.00
